Data on 3 compounds can be found in patent US10165779B2, “Substituted pyrazolylpyrazole derivative and use of same as herbicide” (KYOYU AGRI CO., LTD., priority 2015, dated 2019).

Type in all cases: in vivo
Data set [1] deals with Chenopodium album. The data set can be described thus: Weed foliar treatment test (Test 3, 1.0 to 2.0 leaf stage). Particulars: foliar spray at 1.0 to 2.0 leaf stage of Digitaria ciliaris, 3 weeks. As to the method: (§1) Soil was filled into a 1/6000 are pot followed by seeding with Digitaria ciliaris, Chenopodium album and Amaranthus retroflexus, covering with soil, and cultivating in a glass greenhouse at an average atmospheric temperature of 25° C.
(§2) Wettable powders of Target Compound (I) shown in Table 1 prepared in compliance with the preparation examples were diluted with water to the prescribed amount of chemical and uniformly sprayed onto the weeds using 150 liters of sprayed water per 10 are when Digitaria ciliaris had grown to the 1.0 to 2.0 leaf stage.
(§3) After treating for 3 weeks in a glass greenhouse at an average atmospheric temperature of 25° C., the herbicidal efficacy thereof was investigated.
(§4) Evaluation of herbicidal efficacy was carried out in the same manner as the above-mentioned Test Example 1.

Data set [2] has as its system Amaranthus retroflexus. Described as above. The following applies: foliar spray at 1.0 to 2.0 leaf stage of Digitaria ciliaris, 3 weeks. The method, then:
as §1, §2, §3, §4

Data set [3] has as its system Digitaria ciliaris. The description is as above. The following applies: foliar spray at 1.0 to 2.0 leaf stage of Digitaria ciliaris, 3 weeks. As to the method:
as §1, §2, §3, §4

Data set [4] concerns Chenopodium album. Description: Farming soil treatment test. Particulars: soil surface spray prior to weed growth, 30 days. The method, then: (§5) Field soil was filled into a 1/6000 are pot followed by seeding with Digitaria cilaris, Chenopodium album and Amaranthus retroflexus and covering with soil.
(§6) Wettable powders of compounds of formula (I) shown in Table 1 prepared in compliance with the preparation examples were diluted. with water to the prescribed amount of chemical and uniformly sprayed onto each soil surface layer using 100 liters of sprayed water per 10 are prior to weed growth following seeding.
(§7) After treating for 30 days in a glass greenhouse at an average atmospheric temperature of 30° C., the herbicidal efficacy thereof was investigated.
as §4

The test system of data set [5] is Amaranthus retroflexus. Description: Farming soil treatment test. Particulars: soil surface spray prior to weed growth, 30 days. As to the method: as §5, §6, §7, §4
Data set [6] concerns Digitaria ciliaris. The data set can be described thus: Farming soil treatment test. The following applies: soil surface spray prior to weed growth, 30 days. As to the method:
as §5, §6, §7, §4

Data set [7] relates to Echinochloa crus-galli. Description: Paddy herbicidal activity test. Particulars: irrigated paddy pot, treated at 3.5 leaf stage of Echinochloa crus-galli, 30 days. The method, then: (§8) After treating for 30 days in a glass greenhouse at an average atmospheric temperature of 30° C., the herbicidal efficacy thereof was investigated. Evaluation of herbicidal efficacy was carried out by comparing growth inhibition rate (%) with an untreated group, while evaluation of phytotoxicity was carried out by comparing growth inhibition rate (%) with the state of a complete eradication group, and were evaluated at 11 levels indicated below. […] 2: 20% to less than 30% 3: 30% to less than 40% 4: 40% to less than 50% 5: 50% to less than 60% 6: 60% to less than 70% 7: 70% to less than 80% […]

Data set [8] concerns Monochoria vaginalis. The data set can be described thus: Paddy herbicidal activity test. The following applies: irrigated paddy pot, 30 days. The method, then: as §8
Data set [9] relates to Scirpus juncoides. The data set can be described thus: Paddy herbicidal activity test. Particulars: irrigated paddy pot, 30 days. The method, then:
as §8

Data set [10] concerns Galinsoga parviflora. Description: Weed foliar treatment test (Test 4, 4.0 to 5.0 leaf stage). Particulars: 10 g a.i./10a; foliar spray at 4.0 to 5.0 leaf stage of Digitaria ciliaris; 20 days. As to the method:
(§9) Field soil was filled into a 1/4500 are pot followed by seeding with Digitaria ciliaris and Galinsoga parviflora, covering with soil and cultivating in a glass greenhouse at an average atmospheric temperature of 25° C.
(§10) Wettable powders of Target Compound (I) shown in Table 1 prepared in compliance with the preparation examples were diluted with water to the prescribed amount of chemical and uniformly sprayed onto the weeds using 100 liters of sprayed water per 10 are when Digitaria ciliaris had grown to the 4.0 to 5.0 leaf stage (plant height: 10 cm to 15 cm).
(§11) After treating for 20 days in a glass greenhouse at an average atmospheric temperature of 25° C., the herbicidal efficacy thereof was investigated.
as §4

In data set [11] the test system is Digitaria ciliaris. Described as above. The following applies: 10 g a.i./10a; foliar spray at 4.0 to 5.0 leaf stage of Digitaria ciliaris (plant height 10 cm to 15 cm); 20 days. As to the method:
as §9, §10, §11, §4

In data set [12] the test system is Oryza sativa. Description: Paddy herbicidal activity test, phytotoxicity to transplanted rice. The following applies: rice transplanted at 2.0 leaf stage, 30 days. As to the method:
as §8

Regarding `CCOC(=O)N(C(=O)OCC)c1c(C#N)cnn1-c1nn2c(c1Cl)CCCC2` [Compound 6], the “herbicidal efficacy Chenopodium album” value is listed as 10 (10: 100%) in data set [1] (5g a.i./10a), 10 (10: 100%) in data set [1] (10g a.i./10a), 9 (9: 90% to less than 100%) in data set [4] (5g a.i./10a) and 10 (10: 100%) in data set [4] (10g a.i./10a). Also, the “herbicidal efficacy Amaranthus retroflexus” value in data set [2] (5g a.i./10a), in data set [2] (10g a.i./10a), in data set [5] (5g a.i./10a) and in data set [5] (10g a.i./10a) was 10 (10: 100%) in each case. For the same compound, the “herbicidal efficacy Digitaria ciliaris” value in data set [3] (5g a.i./10a), in data set [3] (10g a.i./10a), in data set [6] (5g a.i./10a), in data set [6] (10g a.i./10a) and in [11] was 10 (10: 100%) in each case. For the same compound, the “herbicidal efficacy Echinochloa crus-galli” value in data set [7] (1g a.i./10a) and in data set [7] (5g a.i./10a) was 10 (10: 100%) in each case. The “herbicidal efficacy Monochoria vaginalis” value in data set [8] (1g a.i./10a) and in data set [8] (5g a.i./10a) was 10 (10: 100%) throughout. Also, the “herbicidal efficacy Scirpus juncoides” value in data set [9] (1g a.i./10a) is recorded as 9 (9: 90% to less than 100%); in data set [9] (5g a.i./10a), 10 (10: 100%). For the same compound, the “herbicidal efficacy Galinsoga parviflora” value in [10] is 10 (10: 100%). Moreover, the “phytotoxicity Oryza sativa” value in data set [12] (1g a.i./10a) was 0 (0 (exponent): 0% to less than 10% (growth inhibition rate)); in data set [12] (5g a.i./10a), 1 (1: 10% to less than 20%).

In the case of `C=CCOC(=O)N(C(=O)OCC=C)c1c(C#N)cnn1-c1nn2c(c1Cl)CCCC2` [Compound 14], the “herbicidal efficacy Chenopodium album” value was 10 (10: 100%) in [1] (5g a.i./10a), 10 (10: 100%) in [1] (10g a.i./10a), 9 (9: 90% to less than 100%) in [4] (5g a.i./10a) and 10 (10: 100%) in data set [4] (10g a.i./10a). In addition, the “herbicidal efficacy Amaranthus retroflexus” value in [2] (5g a.i./10a), in [2] (10g a.i./10a), in [5] (5g a.i./10a) and in data set [5] (10g a.i./10a) was 10 (10: 100%) each time. For the same compound, the “herbicidal efficacy Digitaria ciliaris” value in data set [3] (5g a.i./10a), in data set [3] (10g a.i./10a), in data set [6] (5g a.i./10a), in data set [6] (10g a.i./10a) and in data set [11] was 10 (10: 100%) throughout. In addition, the “herbicidal efficacy Echinochloa crus-galli” value in data set [7] (1g a.i./10a) and in data set [7] (5g a.i./10a) was 10 (10: 100%) each time. The “herbicidal efficacy Monochoria vaginalis” value in [8] (1g a.i./10a) and in data set [8] (5g a.i./10a) was 10 (10: 100%) in each case. The “herbicidal efficacy Scirpus juncoides” value in data set [9] (1g a.i./10a) is on record as 9 (9: 90% to less than 100%); in [9] (5g a.i./10a), 10 (10: 100%). Moreover, the “herbicidal efficacy Galinsoga parviflora” value in data set [10] is given as 10 (10: 100%). The “phytotoxicity Oryza sativa” value in [12] (1g a.i./10a) and in data set [12] (5g a.i./10a) was 1 (1: 10% to less than 20%) each time.

Consider `COC(=O)N(C(=O)OC)c1c([N+](=O)[O-])cnn1-c1nn2c(c1Br)CCCC2` [Compound 5], for which the “herbicidal efficacy Chenopodium album” value in data set [1] (5g a.i./10a), in [1] (10g a.i./10a), in data set [4] (5g a.i./10a) and in data set [4] (10g a.i./10a) was 10 (10: 100%) in each case. The “herbicidal efficacy Amaranthus retroflexus” value in [2] (5g a.i./10a), in data set [2] (10g a.i./10a), in data set [5] (5g a.i./10a) and in data set [5] (10g a.i./10a) was 10 (10: 100%) each time. For the same compound, the “herbicidal efficacy Digitaria ciliaris” value was 9 (9: 90% to less than 100%) in data set [3] (5g a.i./10a); 10 (10: 100%) in [3] (10g a.i./10a); 9 (9: 90% to less than 100%) in [6] (5g a.i./10a); 9 (9: 90% to less than 100%) in data set [6] (10g a.i./10a); 9 (9: 90% to less than 100%) in data set [11]. In addition, the “herbicidal efficacy Echinochloa crus-galli” value in [7] (1g a.i./10a) and in data set [7] (5g a.i./10a) was 9 (9: 90% to less than 100%) throughout. The “herbicidal efficacy Monochoria vaginalis” value in data set [8] (1g a.i./10a) and in [8] (5g a.i./10a) was 10 (10: 100%) in each case. Moreover, the “herbicidal efficacy Scirpus juncoides” value in data set [9] (1g a.i./10a) and in data set [9] (5g a.i./10a) was 10 (10: 100%) throughout. Moreover, the “herbicidal efficacy Galinsoga parviflora” value in data set [10] is 10 (10: 100%). The “phytotoxicity Oryza sativa” value in data set [12] (1g a.i./10a) and in [12] (5g a.i./10a) was 1 (1: 10% to less than 20%) each time.
